Entries after “also recorded” stand apart in the source; their conditions may differ. Like-named read-outs stand apart in the source and are kept apart here.
How the values were obtained:
PP2A = molecular target: T1, PP2A (Homo sapiens, UniProt P67775); experiment: Serine/threonine phosphatase PP2A inhibition; format: biochemical; settings: vs CD45 and PTP1B
T1 construct: purchased Upstate Biotechnology, Lake Placid, N.Y

Ramos B cells = experiment: Ca2+ signaling in Ramos B cells; format: cell-based, human
Protocol: Ca^2+ responses were measured using indo-1 (Molecular Probes, Eugene, Oreg.) and a model 50 HH/2150 flow cytometer (Ortho, Westwood, Mass.) as previously described (P. S. Rabinovitch et al., J. Immunol. 137:952-961 (1986)). The histograms were analyzed by programs (Cicero, Cytomation Inc., Ft. Collins, Colo.) that calculate the mean indo-1 violet/blue fluorescence ratio versus time. There are 100 data points on the X (time) axis for all flow cytometric data.
In the experiments shown in FIG. 22, Ramos B cells were treated overnight with the indicated concentrations of BMLOV. The baseline level of intracellular free Ca^2+ ([Ca^2+ ]i) was established for 1 min, and then the cells were treated with anti-human IgM F(ab')2 (α-μ). The gap in the trace reflects the addition of α-μ. An acute Ca^2+ response to the addition of BMLOV to the Ramos cells was not observed, in contrast to the rapid elevation of Ca^2+ observed following treatment with pervanadate or H2 O2 (G. L. Schieven et al., Blood 82:1212-1220 (1993)); G. L. Schieven et al., J. Biol. Chem. 268:16688-16692 (1993)).

Jurkat [1] = experiment: [3H]thymidine incorporation assay; format: cell-based, human; settings: for [3H]cpm incorporation: seven days
Protocol: For each cell type, the cells were passaged uniformly for all drug doses given during the seven-day period. The cells were then pulsed for six hours with [^3 H]thymidine. The extent of DNA synthesis was then determined by counting the radioactivity incorporated into the cells.
For assays of cellular proliferation, cells were grown five days in the presence of the indicated concentrations of BMLOV, pulsed 6 hr with [^3 H]-thymidine (New England Nuclear, Boston, Mass.), and counted in a liquid scintillation counter. Human peripheral blood lymphocytes (PBL) from normal volunteers were isolated from lymphocyte separation medium (Litton Bionetics, Kensington, Md.) by density gradient centrifugation. Monocytes were depleted from PBL by two rounds of plastic absorption for 30 minutes at 37° C. B cells were enriched for by negative selection using complement plus monoclonal antibodies to CD2, CD3, CD4, and CD8 for complement depletion. Clonogenic assays of colony formation in methylcellulose medium were performed as previously described (F. M. Uckun et al. (1992), supra).

T cell line CEM = experiment: Clonogenic assay in methylcellulose; format: cell-based, human; settings: dose as high as 100 μM BMLOV
Protocol: The selective cytotoxicity of BMLOV was examined in clonogenic assays. Cells were grown in methylcellulose media and the number of colonies formed after seven days of treatment with various doses of the drug were determined. The clonogenic assays were performed with six replicates for each treatment as described [F. M. Uckun et al., J. Exp. Med. 163:347-368 (1986); F. M. Uckun & J. A. Ledbetter, Proc. Natl. Acad. Sci. USA 85:8603-8607 (1988)). The data is given plus/minus the standard error of the mean.

T cells = experiment: Anti-phosphotyrosine immunoblot of T cell lysates, basal and anti-CD3 stimulated; format: cell-based; settings: 16 h, even at 50 μM BMLOV
Protocol: In the experiments shown in FIG. 25, human PHA-induced T cell blasts were treated overnight with the indicated concentrations of BMLOV. In Panel A, the baseline level of intracellular free Ca^2+ ([Ca^2+ ]i) was established for 1 min, and then the cells were treated with biotinylated anti-CD3 mAb (G19-4). After 5 min avidin was added (gap in the trace) to cross-link the antibody. In Panel B, assays were performed as in Panel A, but in the presence of 5 mM EGTA. […] In the experiments shown in FIG. 26, cells were treated 16 h with BMLOV and then stimulated with anti-CD3 mAb G19-4 for 5 min. Cells were then washed and resuspended in fresh media at equal concentrations of BMLOV at 37° C. Cells were then harvested and lysed at times following the initiation of CD3 stimulation as indicated. Antibody binding in immunoblots was detected by ECL.

[2] = test system: subcutaneously implanted human ovarian carcinoma, A2780; experiment: In vivo antitumor test, A2780
Protocol: Finally, pV(phen) was tested against subcutaneously implanted human ovarian carcinoma, A2780, in Experiment No. 54, using a treatment schedule of once daily for 9 days. Treatments (i.p.) were begun on day 10 post implant when the tumors were small but definite, e.g. […]

Jurkat [3] = format: cell-based, human
Excerpt: The extent to which the T cells were being killed by BMLOV treatment relative to the Ramos B cells was therefore examined. […] The percentage of cells in each quadrant is indicated. The lower right quadrant contains the viable cells.

[4] = Expt. 54, OD 12 mg/kg/inj, qdx9;10, ip

T1 sequence (P67775 whole entry): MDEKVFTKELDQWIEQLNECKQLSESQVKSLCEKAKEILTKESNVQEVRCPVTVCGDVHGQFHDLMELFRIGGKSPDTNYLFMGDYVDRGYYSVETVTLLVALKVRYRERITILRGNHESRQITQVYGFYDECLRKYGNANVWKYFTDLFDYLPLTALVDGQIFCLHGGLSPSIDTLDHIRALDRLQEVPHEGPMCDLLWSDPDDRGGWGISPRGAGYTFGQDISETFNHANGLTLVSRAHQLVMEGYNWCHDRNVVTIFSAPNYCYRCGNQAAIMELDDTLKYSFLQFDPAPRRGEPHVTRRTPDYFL

| SMILES | concentration for similar inhibition relative to phosphotyrosine phosphatases (PP2A) | Ca2+ signals induced by cross-linking sIgM (Ramos B cells; 25 μM BMLOV, overnight) | UV-induced Ca2+ signals (Ramos B cells; Ramos B cells) | basal Ca2+ levels (Ramos B cells; Ramos B cells, BMLOV 16 h) | [3H]cpm incorporation (Jurkat [1]; 1 μM BMLOV) [cpm] | [3H]cpm incorporation (Jurkat [1]; 5 μM BMLOV) [cpm] | [3H]cpm incorporation (Jurkat [1]; 10 μM BMLOV) [cpm] | [3H]cpm incorporation (Jurkat [1]; 25 μM BMLOV) [cpm] | sensitivity of proliferation to BMLOV, in words (Jurkat [1]; 25 μM, 5 or 7 days) | inhibition of clonogenic growth (T cell line CEM) | basal or T cell receptor induced cellular tyrosine phosphorylation (T cells) | LCK (log cell kill) [2, 4] | T-C (delay in primary tumor growth) [2, 4] [days] | MTD ([2]; once daily for 9 days, i.p., cumulative dose of 45 mg/kg) [mg/kg per injection] | cells killed (Jurkat [3]; Jurkat, 10 μM pV(phen), three days) | cells killed (Jurkat [3]; human, jurkat cells, 48 h, 10 µM) [%] |
| --- | --- | --- | --- | --- | --- | --- | --- | --- | --- | --- | --- | --- | --- | --- | --- | --- |
| Cc1occc(=O)c1[O-].Cc1occc(=O)c1[O-].[O]=[V+2] [BMLOV, Bis(maltolato)oxovanadium (IV)] | over 100 fold | Complete inhibition | greatly increased and prolonged UV-induced Ca^2+ signals | elevation of basal Ca^2+ levels | 149950 | 118720 | 98057 | 26511 | moderately sensitive; also recorded: substantially inhibited | inhibited only moderately | little effect on basal or T cell receptor induced cellular tyrosine phosphorylation |  |  |  |  |  |
| [Na+].[O]=[V-]12([O][O]1)[O][O]2.c1cnc2c(c1)ccc1cccnc12 [pV(phen), sodium (1,10-phenanthroline) oxodiperoxovanadium (V)] |  |  |  |  |  |  |  |  |  |  |  | 0.4 | 4.0 | 5 | all the cells | 98 |
